{
  "source": "patent US10251852B2",
  "about": "“Composition and methods for treatment of lung disorders characterized by cholesterol dysregulation” (priority 2016, dated 2019)",
  "key": {"[1]": {"test_system": "BMD macrophages from PAP mice (Csf2−/−)", "test": "In vitro mouse PPARγ & LXR stimulation, gene expression by qRT-PCR", "type": "cell-based", "conditions": "T0901317 1 μm", "description": "Tissue macrophage differentiation and culture. All cells were maintained in the culture medium of Dulbecco's modified eagle's medium (DMEM) (Life Technologies) plus 10% FBS, 50 U ml-1 penicillin, and 50 μg ml-1 streptomycin. Bone marrow cells were obtained from 6-8-week-old mice by flushing the tibias and femurs with the culture media described above.\nMononuclear cells were isolated by centrifugation over a Ficoll-Paque (GE Healthcare Life Sciences) gradient at room temperature for 30 minutes. The buffy coat was washed in PBS and the cellular pellet re-suspended in the culture medium with M-CSF (R&D Systems) (5 ng/ml) plus or minus GM-CSF (R&D Systems) as dictated per experimental requirements. Cells were cultured in a 10 cm dish overnight at 37° C. and the next day non-adherent cells were recovered and transferred to a new dish and cultured under the same conditions for an additional 24 hrs. At this stage non-adherent cells were discarded and adherent cells cultured for an additional five days to allow differentiation of bone marrow derived (BMD) macrophages. Peritoneal macrophages were isolated from the peritoneal without chemical solicitation by washing with 8 ml of PBS plus 0.5 mM EDTA. WT peritoneal macrophages were cultured in vitro in culture medium with M-CSF (5 ng/ml) and GM-CSF […], and Csf2^−/− peritoneal macrophages were cultured in culture medium with M-CSF alone. […]"}, "[2]": {"test_system": "BMD macrophages from PAP mice (Csf2−/−)", "test": "In vitro surfactant challenge assay after PPARγ/LXR stimulation (esterified cholesterol accumulation)", "type": "cell-based, mouse", "description": "(§1) In vitro surfactant challenge assay. BMD macrophages or peritoneal macrophages were seeded at 4×10^5 cells per well of a 12 well tissue culture plate and allowed to adhere with fresh media and cytokines overnight. Cells were then challenged for 24 hrs with pulmonary surfactant isolated from a hereditary PAP patient (PAP-S). After the challenge cells were gently washed with PBS to remove exogenous PAP-S and cellular lipids were then extracted and analyzed by the amplex red cholesterol assay.\nIn vitro mouse PPARγ & LXR stimulation Studies. BMD macrophages were prepared as previously described in the presence of M-CSF (10 ng/ml). On the 7th day macrophages were stimulated for 24 hrs with M-CSF (10 ng/ml), GM-CSF (10 ng/ml), Pioglitazone (10 μm) or T0901317 (1 μm from Tocris). Macrophages were then used for an in vitro surfactant challenge assay or gene expression analysis by qRT-PCR as described above."}, "[3]": {"test_system": "Csf2rb−/− mice", "test": "In vivo LXR stimulation study (oral T0901317 in PAP mice)", "parameters": "species or system mouse", "conditions": "oral gavage 10 mg/kg/day, 7 days", "description": "Bronchoalveolar lavage and alveolar macrophage collection in mice.\nRNA isolation and gene expression analysis.\nIn vivo LXR Stimulation Studies. Mice were administered T0901317 by oral gavage once daily for 7 days at a dose of 10 mg/kg/BW/Day using propylene glycol and tween 80 as a vehicle. On the 7th day alveolar macrophages were collected by bronchoalveolar lavage. Following brief adherence to tissue culture plastic to remove BAL debris, alveolar macrophages were then used for RNA isolation and gene expression analysis by qRT-PCR as described above"}, "[4]": {"test_system": "alveolar macrophages from PAP patients", "test": "Ex vivo human PPARγ & LXR stimulation, mRNA by qRT-PCR", "type": "cell-based", "description": "Bronchoalveolar lavage and alveolar macrophage collection in human participants. This study was conducted with the approval of the Cincinnati Children's Hospital Medical Center institutional review board and all participants or their legal guardians gave written informed consent. Human BAL fluid and alveolar macrophages were obtained from BAL using flexible bronchoscopy or from discarded material of PAP patients undergoing therapeutic whole lung lavage. After the fluid was centrifuged at 283 g for 10 minutes, the cellular pellet was re-suspended in the culture medium. Human alveolar macrophages were isolated by adherence to tissue culture plastic. Extracellular debris was removed by gentle washing with PBS.\n(§2) RNA isolation and gene expression analysis. Total RNA was isolated using Trizol (Life Technologies) and was converted to cDNA using the Invitrogen Superscript III first strand synthesis kit (Life Technologies) according to the manufacturer's protocol. Standard quantitative RT-PCR (qRT-PCR) was performed as previously described 10 on an Applied Biosystems 7300 Real-Time PCR System (Life Technologies) to measure transcript abundance using TaqMan® oligonucleotide primer sets (all from Life Technologies). Expression of target genes was normalized to the expression of 18s RNA.\nEx vivo human PPARγ & LXR stimulation studies. After purifying alveolar macrophages, fresh media was added to the adherent alveolar macrophages containing human M-CSF (R&D) (25ng/ml) only or M-CSF plus Pioglitazone (Sigma) (10 μM) or T0901317 (Tocris) (1 μM) for 24 hrs. qRT-PCR was performed as described above."}, "[5]": {"test_system": "patients with insulin resistance", "conditions": "literature ref. 53; cited from earlier work"}, "[6]": {"test_system": "Csf2rb−/− mice", "test": "In vivo PPARγ stimulation study (oral pioglitazone in PAP mice)", "description": "Bronchoalveolar lavage and alveolar macrophage collection in mice. GM-CSF (CSF2) knockout (Csf2^−/−) mice5 and Csf2rb gene-deficient (Csf2rb^−/−)14 were reported previously (referred to mouse PAP). C57B1/6 mice (referred to as wild type or WT mice) were purchased from Charles River. All mice were bred, housed, and studied in the Cincinnati Children's Research Foundation Vivarium using protocols approved by the Institutional Animal Care and Use Committee. Epithelial lining fluid and non-adherent cells were collected from indicated mice by bronchoalveolar lavage (BAL) using five lml aliquots of PBS plus 0.5 mM EDTA4. The 1 ml aliquots were pooled and the recovered volumes recorded. The supernatant was removed and the cellular pellets were re-suspended in the culture media for isolation of alveolar macrophages by adherence to tissue culture plastic.\nCholesterol levels. Total and free cholesterol levels were measured by the amplex red cholesterol assay (Life Technologies) per the manufacturer's protocol. Esterified cholesterol was then calculated by subtracting free cholesterol from the total value.\nTurbidity. The turbidity of the fluid was measured as previously described^4,55 Briefly, 250 uls of the BAL were diluted into 750 uls of PBS and the optical density measured at a wavelength of 600 nm and multiplied by the dilution factor.\nas §2\nIn vivo PPARγ stimulation studies. Pioglitazone was incorporated into standard rodent chow at a dose expected to deliver 20 mg/kg BW/Day. BAL turbidity and alveolar macrophage gene expressions were measured as described above. GM-CSF levels and total cholesterol levels in the BAL were measured in the supernatant of fluid after centrifuge at 283 g for 10 minutes at 4° C. by enzyme-linked immunosorbent assay (ELISA) (R&D systems) and Amplex Red Cholesterol assay respectively as described above."}, "[7]": {"test_system": "Csf2−/− BMD macrophages", "test": "GM-CSF plasticity studies (withdrawal, multi-day stimulation, dose response) with PAP-S challenge", "type": "cell-based, mouse", "conditions": "for reduction in exposure-related cholesterol ester accumulation: addition of GM-CSF (10 ng/ml) to macrophages cultured without it; for increase in exposure-related cholesterol ester accumulation: withdrawal of GM-CSF", "description": "as §1\nGM-CSF withdrawal. Csf2^−/− BMD macrophages were differentiated and maintained in media containing M-CSF and GM-CSF. After 7 days of differentiation cells were split into 12well tissue culture plates and allowed to adhere overnight in GM-CSF containing media. The following day the media was changed to M-CSF only and cells were challenged with PAP-S for 24hrs immediately or 24, 48, and 72 hours after GM-CSF withdrawal. Cellular lipids were extracted, normalized to total protein, and analyzed. Csf2^−/− BMD macrophages were used to ensure elimination of any potential autologous GM-CSF expression-related stimulation.\nMulti-Day GM-CSF stimulation. Csf2^−/− BMD macrophages were generated in media containing M-CSF. On the 7th day cells were stimulated for 0, 24, 48, or 72 hrs with 10 ng/ml of GM-CSF before 24 hr surfactant challenge with PAP-S. Cellular lipids were extracted, normalized to total protein, and analyzed.\nGM-CSF dose response. Csf2^−/− BMD macrophages were generated in media containing M-CSF. On the 7th day cells were stimulated by a dose response of GM-CSF (0, 0.1,1,10, and 100 ng/ml) for 24 hrs before surfactant challenge with PAP-S. Cellular lipids were extracted, normalized to total protein, and analyzed."}, "[8]": {"conditions": "pioglitazone 10 μM, 24 hrs, compared to untreated controls (FIG. 5A-5B)"}, "[9]": {"conditions": "oral in food, 20 mg/kg/day, six weeks, vs untreated age-matched controls (FIG. 5F-5G)"}},
  "data": [
    {"compound": "O=S(=O)(c1ccccc1)N(CC(F)(F)F)c1ccc(C(O)(C(F)(F)F)C(F)(F)F)cc1", "note": "[T0901317, N-(2,2,2-trifluoroethyl)-N-[4-[2,2,2-trifluoro-1-hydroxy-1-(trifluoromethyl)ethyl]phenyl]-benzenesulfonamide]", "values": [
      {"measurement": "Abcg1 mRNA level", "setting": "[1]; 24 hrs (FIG. 8C)", "result": "increased"},
      {"measurement": "Abca1 mRNA level", "setting": "[1]; 24 hrs (FIG. 8D)", "result": "increased"},
      {"measurement": "cholesterol ester accumulation following exposure to PAP-surfactant", "setting": "[2]; T0901317 1 μm 24 hrs, then PAP-S 24 hrs (FIG. 8E)", "result": "reduced"},
      {"measurement": "Abca1 mRNA in alveolar macrophages", "setting": "[3]; vs untreated age-matched controls (FIG. 8F)", "result": "significantly increased"},
      {"measurement": "Abcg1 mRNA in alveolar macrophages", "setting": "[3]; vs untreated age-matched controls (FIG. 8G)", "result": "significantly increased"},
      {"measurement": "ABCG1 mRNA", "setting": "[4]; T0901317 1 μM, 24 hrs (FIG. 8A)", "result": "increase"},
      {"measurement": "ABCA1 mRNA", "setting": "[4]; T0901317 1 μM, 24 hrs (FIG. 8B)", "result": "increase"}
    ]},
    {"compound": "CCc1ccc(CCOc2ccc(CC3SC(=O)NC3=O)cc2)nc1", "note": "(stereo not shown) [pioglitazone, Pioglitazone]", "values": [
      {"measurement": "risk of stroke or myocardial infarction", "setting": "[5]", "result": "reduce the risk"},
      {"measurement": "cholesterol ester accumulation following exposure to PAP-surfactant", "setting": "[2]; pioglitazone 10 μm 24 hrs, then PAP-S 24 hrs (FIG. 5E)", "result": "reduced"},
      {"measurement": "ABCA1 mRNA", "setting": "[4]; [8]", "result": "did not alter"},
      {"measurement": "ABCG1 mRNA", "setting": "[4]; [8]", "result": "markedly increased"},
      {"measurement": "Abca1 mRNA in alveolar macrophages", "setting": "[6]; [9]", "result": "significantly increased"},
      {"measurement": "Abcg1 mRNA in alveolar macrophages", "setting": "[6]; [9]", "result": "significantly increased"},
      {"measurement": "BAL turbidity", "setting": "[6]; oral in food, 20 mg/kg/day, six weeks, vs untreated age-matched controls (FIG. 5H)", "result": "significantly reduced"},
      {"measurement": "BAL cholesterol level", "setting": "[6]; oral in food, 20 mg/kg/day, six weeks, vs untreated age-matched controls (FIG. 5I)", "result": "significantly reduced"},
      {"measurement": "adverse effects", "setting": "[6]; oral pioglitazone in Csf2rb−/− mice (not shown)", "result": "no apparent adverse effects"},
      {"measurement": "severity of PAP lung disease", "setting": "[6]; pioglitazone therapy of GM-CSF deficient mice (summary statement)", "result": "reduced the severity"}
    ]},
    {"compound": "GM-CSF: granulocyte/macrophage-colony stimulating factor (R&D Systems)", "values": [
      {"measurement": "cholesterol clearance capacity of macrophages", "setting": "[7]; GM-CSF 0, 0.1, 1, 10, 100 ng/ml for 24 hrs before PAP-S challenge (FIG. 3N)", "result": "increased the cholesterol clearance capacity of macrophages in dose-dependent fashion"},
      {"measurement": "reduction in exposure-related cholesterol ester accumulation", "setting": "[7]; by 24 hours (FIG. 3M)", "result": 27, "unit": "%"},
      {"measurement": "reduction in exposure-related cholesterol ester accumulation", "setting": "[7]; by 72 hours (FIG. 3M)", "result": 49, "unit": "%"},
      {"measurement": "increase in exposure-related cholesterol ester accumulation", "setting": "[7]; by 24 hours (FIG. 3L)", "result": 86, "unit": "%"},
      {"measurement": "increase in exposure-related cholesterol ester accumulation", "setting": "[7]; by 72 hours (FIG. 3L)", "result": 309, "unit": "%"}
    ]}
  ]
}
